Patent US20230203005A1, “COMPOUNDS WITH TUBULIN POLYMERISATION INHIBITORY ACTIVITY AND IMMUNOMODULATORY PROPERTIES” (UNIVERSITE PARIS-SACLAY, priority 2018, published 2023)

Columns and labels:
[1] = system: MiaPaca2 pancreatic cancer; assay: In vitro cytotoxicity (CellTiter-Blue), MiaPaca2; type: cell-based; conditions: Homo sapiens, MIA PaCa-2; 72 hours of incubation
Description: (§1) The biological activity of the compounds of the invention were studied in vitro on […] human cancer cell lines of different tissular origins: HCT116 colorectal carcinoma; A2780R Cisplatin resistant ovary cancer; MiaPaca2 pancreatic cancer; K562R Doxorubicin resistant chronic myeloid leukaemia; JIM-T1 Trastuzumab-DM1 resistant mammal carcinoma; and HepG2 hepatic carcinoma. The cells selected for this study were incubated at 37° C. in the presence of one of the compounds added to the culture medium at different concentrations. The series of experiments carried out made it possible to determine the degree of toxicity of the compound tested, its effect on cell cycle progression as well as its capacity to induce cell death by apoptosis.
(§2) All the cell lines were maintained in culture at 37° C. in a humid atmosphere containing 5% CO2. Cell viability was evaluated using the reagent CellTiter-Blue™ (Promega, Wis., USA) while respecting the manufacturer's instructions. The cells were seeded in 96 well culture plates at a rate of 5000 cells per […] in 50 μl of culture medium. […] After 2 hours of incubation, the fluorescence emitted was measured at 590 nm after excitation at 560 nm by means of a Victor type fluorescence reader (Perkin-Elmer, USA).

[2] = system: HCT116 cells; assay: Apoptosis, caspase-3/7 activity (Apo-one assay); type: cell-based, human; conditions: HCT116, 24 h treatment, various concentrations
Description: In order to clarify whether compound 1 brings about cell death by apoptosis, the intracellular enzymatic activity of caspases 3 and 7 was evaluated in cultures of HCT116 cells exposed for 24 hours to the action of compound 1.
Apoptosis is measured using the “Apo-one homogeneous caspase-3/7 assay” kit (Promega Co, WI, USA) following the manufacturer's recommendations. Briefly, the cells are seeded in 96 well culture plates at a rate of 50,000 cells per well in 100 μL of culture medium. After 24 hours of incubation, the medium is replaced by 100 μL of culture medium containing different concentrations of compound 1 or 0.1% of DMSO (negative control). After 24 hours of treatment, to each well is added 100 μL of reagent containing the caspase substrate and the buffer for the reaction. After 1 hour incubation, the fluorescence emitted by the cells is measured at 527 nm using a Victor type microplate reader (Perkin-Elmer, USA).

[3] = system: HUVECs; assay: Formation of vascular tubes on Matrigel; type: cell-based, human; conditions: 5 hours, 10 nM (non-toxic)
Description: To determine whether compound 1 disrupts the spatial organisation of endothelial cells into structures similar to vascular capillaries, human endothelial cells (HUVECs) were treated immediately after culturing on Matrigel™ or after 24 hours of culture, in order to allow them to form vascular tubes.
The HUVECs (human endothelial cells derived from the umbilical cord) were cultivated in EGM2 culture medium (Promocell, Germany). The cells were maintained in culture at 37° C. in a humid atmosphere containing 5% CO2.
To evaluate the anti-vascular activity of compound 1, the HUVECs were cultured in 96 well culture plates covered beforehand with an extract of extracellular matrix (Matrigel™, BD Biosciences, Le Pont-de-Claix, France) in which they spontaneously form capillary tubes.
Firstly, we measured the capacity of compound 1 to inhibit the formation of the capillary network. Matrigel™ is deposited in the 96 well culture plates at a rate of 70 μL/well and left to incubate at 37° C. for 45 minutes to enable its polymerisation. 20,000 HUVECs are seeded in each of the wells containing Matrigel™ in the absence or in the presence of different concentrations of compound 1, at a rate of 3 wells per concentration. After 2 hours, 3 hours and 5 hours of incubation at 37° C., the cells are observed and photographed using a TE2000 type optical microscope (Nikon, France), equipped with a camera. […]

[4] = system: JIM-T1 Trastuzumab-DM1 resistant mammal carcinoma; assay: In vitro cytotoxicity (CellTiter-Blue), JIM-T1; type: cell-based; conditions: Homo sapiens, JIMT-1; 72 hours of incubation
Description: as §1, §2

[5] = system: K562R Doxorubicin resistant chronic myeloid leukaemia; assay: In vitro cytotoxicity (CellTiter-Blue), K562R; type: cell-based; conditions: Homo sapiens, K-562R; 72 hours of incubation
Description: as §1, §2

[6] = system: A2780R Cisplatin resistant ovary cancer; assay: In vitro cytotoxicity (CellTiter-Blue), A2780R; type: cell-based; conditions: Homo sapiens; 72 hours of incubation
Description: as §1, §2

[7] = system: HCT116 colorectal carcinoma; assay: In vitro cytotoxicity (CellTiter-Blue), HCT116; type: cell-based; conditions: Homo sapiens, HCT-116; 72 hours of incubation
Description: as §1
All the cell lines were maintained in culture at 37° C. in a humid atmosphere containing 5% CO2. Cell viability was evaluated using the reagent CellTiter-Blue™ (Promega, Wis., USA) while respecting the manufacturer's instructions. The cells were seeded in 96 well culture plates at a rate of 5000 cells per […] in 50 μl of culture medium. After 24 hours of culture, the compounds of generic formula (I) dissolved in DMSO were added individually to each of the wells at a rate of 50 μl per well. All the compounds were tested in triplicate for each concentration defined and each experiment was repeated 3 times. After 72 hours of incubation, 20 μL of resazurin were added to each well. After 2 hours of incubation, the fluorescence emitted was measured at 590 nm after excitation at 560 nm by means of a Victor type fluorescence reader (Perkin-Elmer, USA).

[8] = system: tubulin; assay: Tubulin polymerisation inhibition (fluorescence assembly assay); type: biochemical, ewe; conditions: inhibition of 50% of the maximum assembly rate; tubulin 10 μM
Description: The tubulin is purified from ewe brains according to the Shelanski method by 2 assembly-disassembly cycles. The mother solution (15-20 mg/mL), stored at −196° C., is thawed and diluted in the assembly buffer (0.1 M MES, 0.5 mM MgCl2, 1 mM EGTA, and 1 mM GTP, pH 6.6) to have a final concentration of 10 μM. Tubulin assembly is monitored by fluorescence on 96 well plates according to the method of Barron et al. (Anal. Biochem. 315 (2003) 49-56). To the solution of tubulin (10 μM, 100 μL per well) is added the inhibitor (DMSO, 1 μL) and the solution is incubated for 45 min at room temperature. GTP (1 mM final) is next added, the solution is rapidly mixed and the fluorescence (λex=350 nm, λem=440 nm) is measured on a Wallac Victor fluorimeter (Perkin Elmer). The determination of the inhibition of 50% of the maximum assembly rate (IC50) is carried out in duplicate or triplicate over 10 concentrations surrounding the IC50.

[9] = system: HCT116 cells; assay: Analysis of the cell cycle by flow cytometry; type: cell-based, human; conditions: HCT116, 24 hours of exposure, 5 nM
Description: The HCT116 cells are seeded in 6 well culture plates at a rate of 300,000 cells per well in their respective media described above. After 24 hours of culture, compound 1 was added to each of the wells at different concentrations. After 24 hours of incubation, the cells are collected individually in 15 mL tubes then centrifuged. The cells are next washed twice in cold PBS then re-suspended in 1 mL of PBS, fixed by adding 2 mL of cold absolute ethanol and placed at 4° C. for 1 hour. After centrifugation, the cells are washed twice in PBS then the cell pellet is taken up in 100 μL of 1%. Triton X100. After 30 minutes of incubation at room temperature, 50 μL of RNase A boiled beforehand (1 mg/mL) and 500 μL of propidium iodide (50 μg/mL) are added to each tube and incubated in darkness at room temperature for 30 minutes. The distribution of the number of cells in each of the phases of the cell cycle is next determined by flow cytometry using a FC500 type cytometer (Beckman-Coulter, France).

[10] = prior art WO 2008/122620; cited from earlier work

SMILES	IC50 [7]	IC50 [8]	other results
Cc1cc(N(C)c2ccc3c(c2)c2ccccc2n3C)c2ccccc2n1 [Compound 1, N,9-Dimethyl-N-(2-methylquinolin-4-yl)-9H-carbazol-3-amine]	0.07 ± 0.09 nM	1130 ± 160 nM	IC50 [1]: 0.47 ± 0.01 nM; Induction of apoptosis (caspases 3 and 7 activity) [2]: strong induction of apoptosis; Number of vascular tubes [3]: very important decrease in the number of vascular tubes; IC50 [4]: 0.36 ± 0.02 nM; IC50 [5]: 0.277 ± 0.017 nM; IC50 [6]: 0.54 ± 0.094 nM; Effect on cell cycle [9]: blocks cellular division in the G2/M phase
CN(c1ccc2c(c1)c1ccccc1n2C)c1cc(C#N)nc2ccccc12 [Compound 2, 4-(Methyl(9-methyl-9H-carbazol-3-yl)amino)quinoline-2-carbonitrile]	12 ± 0.8 nM	1400 ± 510 nM	
CN(c1ccc2c(c1)c1ccccc1n2C)c1ccnc2ccccc12 [Compound 4, N,9-Dimethyl-N-(quinolin-4-yl)-9H-carbazol-3-amine]			melting point: 222.2 to 228.4 °C
Cc1cc(N(C)c2ccc3c(c2)c2ccccc2n3Cc2ccccc2)c2ccccc2n1 [Compound 5, 9-Benzyl-N-methyl-N-(2-methylquinolin-4-yl)-9H-carbazol-3-amine]			melting point: 192.7 to 196.5 °C
COc1cccc2c(N(C)c3ccc4c(c3)c3ccccc3n4C)cc(C)nc12 [Compound 6, N-(8-Methoxy-2-methylquinolin-4-yl)-N,9-dimethyl-9H-carbazol-3-amine]	21.6 ± 0.71 nM	1480 ± 520 nM	
Cc1cc(N(C)c2ccc3c(c2)c2ccccc2n3C)c2cc([N+](=O)[O-])ccc2n1 [Compound 7, N,9-Dimethyl-N-(2-methyl-6-nitroquinolin-4-yl)-9H-carbazol-3-amine]			melting point: 207.6 to 212.4 °C
CCn1c2ccccc2c2cc(N(C)c3cc(C)nc4ccccc34)ccc21 [Compound 8, 9-Ethyl-N-methyl-N-(2-methylquinolin-4-yl)-9H-carbazol-3-amine]			melting point: 87.4 to 89.6 °C
Cc1nc(N(C)c2ccc3c(c2)c2ccccc2n3C)c2ccccc2n1 [Compound 9, N,9-Dimethyl-N-(2-methylquinazolin-4-yl)-9H-carbazol-3-amine]	2.4 ± 0.2 nM	3800 ± 900 nM	
CN(c1ccc2c(c1)c1ccccc1n2C)c1nc(Cl)nc2ccccc12 [Compound 10, N-(2-Chloroquinazolin-4-yl)-N,9-dimethyl-9H-carbazol-3-amine]	1.06 ± 0.2 nM	3140 ± 1040 nM	
Cc1cc(N(C)c2ccc3c(c2)c2cc(N)ccc2n3C)c2ccccc2n1 [Compound 14, N3,9-dimethyl-N3-(2-methylquinolin-4-yl)-9H-carbazole-3,6-diamine]	2.88 ± 1.54 nM	2760 ± 500 nM	
Cc1cc(N(C)c2ccc3c(c2)c2ccccc2n3C)c2cccc(O)c2n1 [Compound 15, 2-Methyl-4-(methyl(9-methyl-9H-carbazol-3-yl)amino)quinolin-8-ol]	50.6 ± 0.66 nM	1240 ± 400 nM	
Cc1cc(N(C)c2ccc3c(c2)c2ccccc2n3C)c2cc(N)ccc2n1 [Compound 16, N4,2-Dimethyl-N4-(9-methyl-9H-carbazol-3-yl)quinoline-4,6-diamine]	24.5 ± 1.92 nM	5760 ± 1470 nM	
CN(c1ccc2c(c1)c1ccccc1n2C)c1cc(Cl)nc2ccccc12 [Compound 17, N-(2-Chloroquinolin-4-yl)-N,9-dimethyl-9H-carbazol-3-amine]	16.7 ± 0.38 nM	1160 ± 310 nM	
Cc1cc(N(C)c2ccc3c(ccn3C)c2)c2ccccc2n1 [Compound 18, N,2-Dimethyl-N-(1-methyl-1H-indol-5-yl)quinolin-4-amine]	2 ± 0.04 nM	1340 ± 450 nM	
CN(c1ccc2c(ccn2C)c1)c1cc(C#N)nc2ccccc12 [Compound 19, 4-(Methyl(1-methyl-1H-indol-5-yl)amino)quinoline-2-carbonitrile]	0.72 ± 0.03 nM	2780 ± 1140 nM	melting point: 173.1 to 174.2 °C
CN(c1ccc2c(ccn2C)c1)c1cc(C(F)(F)F)nc2ccccc12 [Compound 20, N-Methyl-N-(1-methyl-1H-indol-5-yl)-2-(trifluoromethyl)quinolin-4-amine]	3.28 ± 0.18 nM	2500 ± 540 nM	
CN(c1ccc2c(ccn2C)c1)c1nc(Cl)nc2ccccc12 [Compound 21, 2-Chloro-N-methyl-N-(1-methyl-1H-indol-5-yl)quinazolin-4-amine]	0.2 ± 0.01 nM	1190 ± 280 nM	IC50 [1]: 0.62 ± 0.016 nM; IC50 [4]: 0.52 ± 0.016 nM; IC50 [5]: 1.77 ± 0.162 nM; IC50 [6]: 2.34 ± 0.18 nM
C=C(c1ccc(OC)c(O)c1)c1cc(OC)c(OC)c(OC)c1 [isoCA-4, Isocombretastatin A-4]			Metabolism in the presence of hepatocytes [10]: do not metabolise in the presence of hepatocytes
C=C(c1ccc(OC)c(N)c1)c1cc(OC)c(OC)c(OC)c1 [isoNH2CA-4, isoaminocombretastatin A-4]			Metabolism in the presence of hepatocytes [10]: do not metabolise in the presence of hepatocytes
